One data set deals with HaCaT cells. Nature of the data set: MTT cell viability assay on HaCaT keratinocytes. In kind it is cell-based, human. On the procedure: Cell culture, pretreatment and stimulation. The immortalized human keratinocyte cell line HaCaT, fibroblast MRC5 were grown in Dulbecco's modified Eagle's medium-Glutamax-I (DMEM) with 1 mM sodium pyruvate. […] DMEM and RPMI were supplemented with 0.1% and 10% heat-inactivated fetal calf serum (Invitrogen), and an antibiotic/antimycotic solution (10 U/ml Pencillin, 10 μg/ml Streptomycin, 0.25 μg/ml Amphoterin) at 37° C. in humidified atmosphere containing 5% CO2 as described (Life Technologie). Primary human keratinocytes (NHDK) and fibroblast (HDF) were grown in the KGM-Gold and in FGM-2 Bullet Kit, respectively, as described by the manufacturer (Lonza). The immortalized cell lines were routinely tested to assess the absence of Mycoplasma infection. Cells, cultivated in 6- or 96-well polystyrene plates, were pretreated with appropriate molecule solution for 1 to 48 h at 37° C. in the dark at the appropriate concentration. Then, for stimulation, cells were incubated for 15 min to 24 h with the P. acnes suspension adjusted at the appropriate concentration at 37° C. in 5% CO2. For experiences using an in vitro model of psoriasis, the primary human keratinocytes (NHDK) were grown in culture medium for 24 hours.
Cell viability assays. Viability of cells was estimated by using the MTT assay where cells were incubated with a 0.2% MTT solution in cell culture medium for 4 h at 37° C. The MTT solution was then discarded and DMSO added to solubilize the MTT-formazan cristals produced in living cells. After thorough mixing, the absorbance was measured at 540 nm.
In general terms: Tetrazolium assays rely on reduction of a dye to a coloured formazan, in cell work by metabolically active cells.

A further data set has as its system PPARβ. Nature of the data set: Western blot of PPARβ expression in P. acnes-stimulated HaCaT cells. The format is cell-based, human. The following applies: 25 μM, 24 h pre-treatment. On the procedure: Western Blot analysis. Whole cell protein extracts (25 μg) were separated by electrophoresis (LDS-PAGE) under denaturing conditions with NuPAGE Novex 4-12% Bis-Tris gel (1 mm, 12 wells, Invitrogen, UK) and proteins were transferred onto nitrocellulose membranes and saturated in 20 ml of saturation buffer consisting of TBS 1× (Tris Buffered Saline) containing 200 mM Tris, 1.4 M NaCl (pH 7.6), 5% no fat milk, 0.1% Tween 20 for 1 h. […] After washing to remove unbound antibodies, bound primary antibodies were detected by incubation for 1 h using secondary antibody against rabbit- and mouse IgG (Santa Cruz Biotechnology, SC-2357, 1:5000 and SC-2005, 1:5000, respectively). Unbound material was removed by washing and peroxidase activity was detected in a chemiluminescence assay (WesternBright ECL, Advansta, Menlo Park, USA). […]
For orientation: In western blotting, separated proteins are transferred to a membrane and probed.

Structures are written as SMILES.

Consider `N#CC(c1ccc(Cl)cc1)c1c(Cl)cc(-n2ncc(=O)[nH]c2=O)cc1Cl` (stereo not shown) [diclazuril, Diclazuril], for which, in the data set on HaCaT cells, the “impact on cell viability (MTT), 48 h pre-treatment” value is on record as “without any major impact on cell viability”. The “expression of PPARβ” value in the data set on PPARβ was “no change”.

In the case of `Cc1cccc(CN2CCN(C(c3ccccc3)c3ccc(Cl)cc3)CC2)c1` (stereo not shown) [meclozine, Meclozine], the “impact on cell viability (MTT), 48 h pre-treatment” value with HaCaT cells was “without any major impact on cell viability”. The “expression of PPARβ” value in the data set with PPARβ is listed as “strongly decrease”.

These data come from patent US11617748B2, “Meclozine derivatives and diclazuril derivatives for use in the prevention and/or the treatment of disorders associated to the inflammation induced by P. acnes” (priority 2016, dated 2023).
